One experiment addresses T1, MMSC2 PDZ domain 6 (P11) (Homo sapiens, UniProt O75970).
T1 construct: 1007-1090; made in house; host or cells: E. coli
T1 sequence (O75970 1007-1090 isoform O75970-3): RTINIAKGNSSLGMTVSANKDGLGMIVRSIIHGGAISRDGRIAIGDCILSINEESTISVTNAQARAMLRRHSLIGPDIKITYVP
The experiment in a line: PDZ binding assay (ELISA), PDZ domain 6. As to conditions: immobilized GST-PDZ domain 6 (P11); biotinylated peptide pre-bound to streptavidin-alkaline phosphatase; colorimetric phosphatase assay. The text has this: (§1) cDNAs encoding each of the MMSC2 PDZ domains (amino acid residues identified in Table 1), and any desired control proteins, were generated by PCR and subcloned as glutathione S-transferase (GST) fusions in pGEX vectors (Pharmacia). After sequencing to confirm expression construct integrity, the resulting clones were expressed in E. coli and the desired fusion proteins isolated with glutathione-agarose and recovered with glutathione elution. These fusion proteins or control proteins were then adsorbed to different wells of a 96-well ELISA plate and remaining sites blocked with BSA. Synthetic commercially synthesized peptides encoding the desired PDZ-binding domain (i.e., the 16 C-terminal amino acids of MMAC1, or the C-terminal peptide sequences of interacting proteins identified by the approach of Example 2, or the C-terminal peptide sequences identified by the approach of Example 3), or a control peptide, and biotinylated at the amino-terminus, were pre-bound to streptavidin-alkaline phosphatase in a 4:1 molar ratio. […] Bound peptide/streptavidin-alkaline phosphatase complex was then quantitated by a colorimetric phosphatase assay read on a 96-well plate reader. […]
(§2) The relative affinity of each of the 13 PDZ domains encoded by MMSC2 for an MMAC1 C-terminal PDZ peptide as measured by an ELISA assay is set forth in Table 2.

The target in the next experiment is T2, MMSC2 PDZ domain 8 (P8) (Homo sapiens, UniProt O75970).
T2 construct: 1316-1398; made in house; host or cells: E. coli
T2 sequence (O75970 1316-1398 isoform O75970-3): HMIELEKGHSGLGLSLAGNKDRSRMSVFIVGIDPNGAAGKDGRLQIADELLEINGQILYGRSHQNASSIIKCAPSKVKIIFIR
The experiment in a line: PDZ binding assay (ELISA), PDZ domain 8. Particulars: immobilized GST-PDZ domain 8 (P8); biotinylated peptide pre-bound to streptavidin-alkaline phosphatase; colorimetric phosphatase assay.
Description: as §1, §2
For orientation: In an ELISA, binding on a coated surface is turned into a signal by an enzyme label.

The target in another experiment is T3, MMSC2 PDZ domain 5 (P12) (Homo sapiens, UniProt O75970).
T3 construct: 699-785; made in house; host or cells: E. coli
T3 sequence (O75970 699-785 isoform O75970-3): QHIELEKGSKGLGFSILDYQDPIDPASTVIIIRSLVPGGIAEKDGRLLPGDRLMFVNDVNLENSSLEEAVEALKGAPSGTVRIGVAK
In words: PDZ binding assay (ELISA), PDZ domain 5. As to conditions: immobilized GST-PDZ domain 5 (P12); biotinylated peptide pre-bound to streptavidin-alkaline phosphatase; colorimetric phosphatase assay.
Description: as §1, §2

For a further experiment, the target named is T4, MMSC2 PDZ domain 1 (P15) (Homo sapiens, UniProt O75970).
T4 construct: 136-222; made in house; host or cells: E. coli
T4 sequence (O75970 136-222 isoform O75970-3): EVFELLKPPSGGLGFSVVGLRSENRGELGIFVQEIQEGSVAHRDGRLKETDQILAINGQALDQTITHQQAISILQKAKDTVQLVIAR
The experiment in a line: PDZ binding assay (ELISA), PDZ domain 1. As to conditions: immobilized GST-PDZ domain 1 (P15); biotinylated peptide pre-bound to streptavidin-alkaline phosphatase; colorimetric phosphatase assay.
Description: as §1, §2

For another experiment, the target named is T5, MMSC2 PDZ domain 3 (P13) (Homo sapiens, UniProt O75970).
T5 construct: 376-461; made in house; host or cells: E. coli
T5 sequence (O75970 376-461 isoform O75970-3): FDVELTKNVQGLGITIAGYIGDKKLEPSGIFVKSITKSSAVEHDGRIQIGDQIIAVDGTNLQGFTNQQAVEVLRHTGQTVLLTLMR
In words: PDZ binding assay (ELISA), PDZ domain 3. Particulars: immobilized GST-PDZ domain 3 (P13); biotinylated peptide pre-bound to streptavidin-alkaline phosphatase; colorimetric phosphatase assay.
Description: as §1, §2

The next experiment concerns the target T6, MMSC2 PDZ domain 7 (P9) (Homo sapiens, UniProt O75970).
T6 construct: 1150-1241; made in house; host or cells: E. coli
T6 sequence (O75970 1150-1241 isoform O75970-3): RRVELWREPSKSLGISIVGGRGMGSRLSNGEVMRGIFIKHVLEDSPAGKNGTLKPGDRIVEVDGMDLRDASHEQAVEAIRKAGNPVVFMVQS
In words: PDZ binding assay (ELISA), PDZ domain 7. As to conditions: for A405: immobilized GST-PDZ domain 7 (P9), biotinylated peptide pre-bound to streptavidin-alkaline phosphatase, colorimetric phosphatase assay.
Description: (§3) cDNAs encoding each of the MMSC2 PDZ domains (amino acid residues identified in Table 1), and any desired control proteins, were generated by PCR and subcloned as glutathione S-transferase (GST) fusions in pGEX vectors (Pharmacia). After sequencing to confirm expression construct integrity, the resulting clones were expressed in E. coli and the desired fusion proteins isolated with glutathione-agarose and recovered with glutathione elution. These fusion proteins or control proteins were then adsorbed to different wells of a 96-well ELISA plate and remaining sites blocked with BSA. Synthetic commercially synthesized peptides encoding the desired PDZ-binding domain (i.e., the 16 C-terminal amino acids of MMAC1, or the C-terminal peptide sequences of interacting proteins identified by the approach of Example 2, or the C-terminal peptide sequences identified by the approach of Example 3), or a control peptide, and biotinylated at the amino-terminus, were pre-bound to streptavidin-alkaline phosphatase in a 4:1 molar ratio. The biotinylated peptide streptavidin-alkaline phosphatase complexes were then blocked with free biotin. These pre-bound peptide streptavidin-alkaline phosphatase complexes were then incubated with the immobilized PDZ domains in wash buffer containing PBS, BSA and triton-X100. Unbound material was removed with repeated washes. Bound peptide/streptavidin-alkaline phosphatase complex was then quantitated by a colorimetric phosphatase assay read on a 96-well plate reader. The following peptides were used in the initial study:
as §2

The target of another experiment is T7, MMSC2 PDZ domain 13 (P4) (Homo sapiens, UniProt O75970).
T7 construct: 1953-2037; made in house; host or cells: E. coli
T7 sequence (O75970 1953-2037 isoform O75970-3): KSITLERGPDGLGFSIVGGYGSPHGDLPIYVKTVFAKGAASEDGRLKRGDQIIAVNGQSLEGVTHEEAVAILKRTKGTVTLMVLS
In words: PDZ binding assay (ELISA), PDZ domain 13. Particulars: for A405: immobilized GST-PDZ domain 13 (P4), biotinylated peptide pre-bound to streptavidin-alkaline phosphatase, colorimetric phosphatase assay.
Description: as §3, §2

The target of a further experiment is T8, MMSC2 PDZ domain 4 (P10) (Homo sapiens, UniProt O75970).
T8 construct: 555-632; made in house; host or cells: E. coli
T8 sequence (O75970 555-632 isoform O75970-3): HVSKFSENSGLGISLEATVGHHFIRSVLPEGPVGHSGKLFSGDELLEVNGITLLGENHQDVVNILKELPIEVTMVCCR
In words: PDZ binding assay (ELISA), PDZ domain 4. Particulars: immobilized GST-PDZ domain 4 (P10); biotinylated peptide pre-bound to streptavidin-alkaline phosphatase; colorimetric phosphatase assay.
Description: as §1, §2

The target of the next experiment is T9, MMSC2 PDZ domain 10 (P1) (Homo sapiens, UniProt O75970).
T9 construct: 1595-1677; made in house; host or cells: E. coli
T9 sequence (O75970 1595-1677 isoform O75970-3): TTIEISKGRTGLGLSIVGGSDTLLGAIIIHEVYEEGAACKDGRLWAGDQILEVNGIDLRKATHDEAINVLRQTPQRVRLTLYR
The experiment in a line: PDZ binding assay (ELISA), PDZ domain 10. Particulars: for A405: immobilized GST-PDZ domain 10 (P1), biotinylated peptide pre-bound to streptavidin-alkaline phosphatase, colorimetric phosphatase assay.
Description: as §3, §2

In the next experiment the target is T10, MMSC2 PDZ domain 11 (P2) (Homo sapiens, UniProt O75970).
T10 construct: 1691-1772; made in house; host or cells: E. coli
T10 sequence (O75970 1691-1772 isoform O75970-3): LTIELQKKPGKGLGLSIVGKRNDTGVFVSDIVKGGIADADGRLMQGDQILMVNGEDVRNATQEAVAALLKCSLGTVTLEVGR
The experiment in a line: PDZ binding assay (ELISA), PDZ domain 11. As to conditions: immobilized GST-PDZ domain 11 (P2); biotinylated peptide pre-bound to streptavidin-alkaline phosphatase; colorimetric phosphatase assay.
Description: as §1, §2

The target in a further experiment is T11, MMSC2 PDZ domain 12 (P3) (Homo sapiens, UniProt O75970).
T11 construct: 1828-1913; made in house; host or cells: E. coli
T11 sequence (O75970 1828-1913 isoform O75970-3): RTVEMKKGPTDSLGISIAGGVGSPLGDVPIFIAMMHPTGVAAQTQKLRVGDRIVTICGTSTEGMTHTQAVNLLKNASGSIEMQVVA
In words: PDZ binding assay (ELISA), PDZ domain 12. As to conditions: immobilized GST-PDZ domain 12 (P3); biotinylated peptide pre-bound to streptavidin-alkaline phosphatase; colorimetric phosphatase assay.
Description: as §1, §2

In the next experiment the target is T12, MMSC2 PDZ domain 9 (P7) (Homo sapiens, UniProt O75970).
T12 construct: 1439-1529; made in house; host or cells: E. coli
T12 sequence (O75970 1439-1529 isoform O75970-3): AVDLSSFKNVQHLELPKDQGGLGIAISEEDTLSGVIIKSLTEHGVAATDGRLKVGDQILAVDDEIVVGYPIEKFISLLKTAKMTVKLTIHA
In words: PDZ binding assay (ELISA), PDZ domain 9. As to conditions: immobilized GST-PDZ domain 9 (P7); biotinylated peptide pre-bound to streptavidin-alkaline phosphatase; colorimetric phosphatase assay.
Description: as §1, §2

Another experiment addresses T13, MMSC2 PDZ domain 2 (P14) (Homo sapiens, UniProt O75970).
T13 construct: 256-335; made in house; host or cells: E. coli
T13 sequence (O75970 256-335 isoform O75970-3): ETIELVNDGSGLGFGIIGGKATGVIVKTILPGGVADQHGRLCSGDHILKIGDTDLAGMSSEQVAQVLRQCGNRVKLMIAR
In words: PDZ binding assay (ELISA), PDZ domain 2. Particulars: immobilized GST-PDZ domain 2 (P14); biotinylated peptide pre-bound to streptavidin-alkaline phosphatase; colorimetric phosphatase assay.
Description: as §1, §2

*: point of attachment. Biotin = O=C1N[C@H]2[C@H](CS[C@H]2CCCCC(=O)*)N1

The results in this text go back to patent publication US20020115104A1, “MMSC2 - an MMAC1 interacting protein” (priority 1998, published 2002).

As for Biotin-ENEPFDEDQHTQITKV-OH [MMAC1], the A405 was 0.016 on MMSC2 PDZ domain 6 (P11); 0.006 on MMSC2 PDZ domain 8 (P8); 0.000 at MMSC2 PDZ domain 5 (P12); 0.011 on MMSC2 PDZ domain 1 (P15); 0.006 at MMSC2 PDZ domain 3 (P13); 0.667 on MMSC2 PDZ domain 7 (P9). The A405 on MMSC2 PDZ domain 13 (P4) came out at 0.456; on MMSC2 PDZ domain 4 (P10), 0.024; at MMSC2 PDZ domain 10 (P1), 0.174; at MMSC2 PDZ domain 11 (P2), 0.012; on MMSC2 PDZ domain 12 (P3), 0.003; at MMSC2 PDZ domain 9 (P7) it was 0.017. For the same substance, the A405 at MMSC2 PDZ domain 2 (P14) is 0.001. Besides, the “interaction of PDZ domain with MMAC1 (in words)” value on MMSC2 PDZ domain 7 (P9) (PDZ domain number 7, 7 appearing stronger) is “interact”; at MMSC2 PDZ domain 13 (P4) (PDZ domain number 13), “interact”; on MMSC2 PDZ domain 10 (P1) (PDZ domain number 10), “interact”.
With “Biotin-SGSGILAPPVPPRNTR-OH [SH3, reference compound]”, the A405 on MMSC2 PDZ domain 6 (P11) was found to be 0.017; on MMSC2 PDZ domain 8 (P8) it was 0.008; on MMSC2 PDZ domain 5 (P12), 0.005; on MMSC2 PDZ domain 1 (P15), 0.007; on MMSC2 PDZ domain 3 (P13), 0.008; on MMSC2 PDZ domain 7 (P9), 0.006. Moreover, the A405 at MMSC2 PDZ domain 13 (P4) is listed as 0.006; at MMSC2 PDZ domain 4 (P10), 0.010; at MMSC2 PDZ domain 10 (P1) it was 0.002; at MMSC2 PDZ domain 11 (P2), 0.009; on MMSC2 PDZ domain 12 (P3), 0.011; at MMSC2 PDZ domain 9 (P7) it was 0.009. On MMSC2 PDZ domain 2 (P14), this substance had an A405 of 0.006.
